Experimental data: patent US4965266A, “Heteroarylcarboxamide derivatives, process for preparing the same and pharmaceutical composition containing the same” (Dainippon Pharmaceutical Co., Ltd., priority 1987, dated 1990)
Structures can show the parent of a compound that is named as a salt.

Key:
5-lipoxygenase = molecular target: T1, 5-lipoxygenase (Cavia porcellus, UniProt A0A286X958); experiment: Inhibitory effect on 5-lipoxygenase activity (antiallergic activity in vitro); assay type: biochemical, guinea pig (male Hartley); conditions: for inhibition at 10 µM: 10^-5 M test compound, guinea pig peritoneal exudate cell cytosol, mean of 3 to 6 experiments
T1 construct: A cytosol fraction of peritoneal exudate cell from male Hartley guinea pig (weighing 400 to 700 g) was used as 5-lipoxygenase; endogenous in cells; host or cells: cytosol fraction of peritoneal exudate cells from male Hartley guinea pig
T1 sequence (A0A286X958 1-674): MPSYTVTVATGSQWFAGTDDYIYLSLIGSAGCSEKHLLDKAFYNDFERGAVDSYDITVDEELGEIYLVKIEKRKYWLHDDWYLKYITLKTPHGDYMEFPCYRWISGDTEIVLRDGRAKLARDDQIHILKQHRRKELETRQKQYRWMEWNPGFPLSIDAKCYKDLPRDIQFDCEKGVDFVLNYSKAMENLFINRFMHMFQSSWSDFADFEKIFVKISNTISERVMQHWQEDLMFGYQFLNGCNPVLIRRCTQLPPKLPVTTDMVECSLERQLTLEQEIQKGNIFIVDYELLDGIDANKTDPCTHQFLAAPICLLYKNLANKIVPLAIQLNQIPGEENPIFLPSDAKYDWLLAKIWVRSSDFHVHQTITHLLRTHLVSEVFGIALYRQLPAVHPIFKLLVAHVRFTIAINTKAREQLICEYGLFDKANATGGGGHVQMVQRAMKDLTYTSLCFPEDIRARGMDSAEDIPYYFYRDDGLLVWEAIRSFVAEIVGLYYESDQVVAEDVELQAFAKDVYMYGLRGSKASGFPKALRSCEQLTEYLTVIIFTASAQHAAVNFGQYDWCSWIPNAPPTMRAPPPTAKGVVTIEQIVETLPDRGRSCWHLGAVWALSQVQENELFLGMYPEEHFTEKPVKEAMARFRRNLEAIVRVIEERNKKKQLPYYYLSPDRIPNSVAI
Experimental: This experiment was carried out by the method of Miyamoto and Obata ["Perspectives in Prostaglandin Research", ed. by Y. Shiokawa et al., Excerpta Medica, Amsterdam-Oxford-Princeton, 1983, p.78] with minor modifications.
A cytosol fraction of peritoneal exudate cell from male Hartley guinea pig (weighing 400 to 700 g) was used as 5-lipoxygenase. As a standard reaction solution, a mixture of 50 mM potassium phosphate buffer (pH 7.4), 1 mM calcium chloride, 1 mM glutathione, 1 mM adenosine triphosphate, 10 μM indomethacin and the enzyme was used. To the reaction solution was added 0.02 μCi of [1-^14 C] arachidonic acid and the mixture was incubated at 30° C. for 5 minutes, followed by adding 0.6 ml of a cold solution comprising diethyl ether methanol -0.2 M citric acid (30 : 4 : 1) to terminate the reaction. The organic layer (300 μ1) was subjected to a thin layer chromatography plate on silica gel 60 F254 (E. Merck, West Germany) and, after developing, a radioactivity was measured by means of radiochromatogram scanner (Packard, U.S.A.) 5-Lipoxygenase activity was calculated by the following equation. [formula]
The results are shown in Table 1 in terms of mean value of 3 to 6 experiments.

[1] = system: passive cutaneous anaphylaxis (PCA); experiment: Inhibitory effect on passive cutaneous anaphylaxis (PCA) (antiallergic activity in vivo); design: species or system rat (male Wistar); conditions: 20 mg/kg oral, 1 hour prior to dye injection; rats; vs control group
Experimental: Male Wistar rats (weighing 130 to 190 g) were injected with a dilute solution (0.1 ml) of mouse antiserum to egg albumin, which was prepared by the method of Levine et al. [Int. Arch. Allergy Appl. […] Forty-eight hours later, 0.5% Evan's blue solution (1 ml) containing 2 mg of egg albumin was intravenously injected to tail vein of the animal. Thirty minutes after the dye injection, abdominal skin was peeled off and the area of the blueing lesions was measured. In each rat, a mean value of the two lesions was regarded as the response of the rat. The test compounds in a dose of 20 mg/kg, dissolved or suspended in a 0.5% aqueous tragacanth solution, were orally administered 1 hour prior to the dye injection.

ddY mice = experiment: Acute toxicity; assay type: in vivo; conditions: 1000 mg/kg oral; male ddY mice, 7 days observation
Text: Five male ddY mice weighing 25 to 29 g were used in each group.

| inhibition at 10 µM (5-lipoxygenase) [%] | Structure (SMILES) | also measured |
| --- | --- | --- |
| 79.6 | Cc1ccc2c(O)c(C(=O)NCCCCN3CCN(C(c4ccccc4)c4ccccc4)CC3)cnc2n1 [Example 2, N-[4-(4-diphenylmethyl-1-piperazinyl)butyl]-4-hydroxy-7-methyl-1,8-naphthyridine-3-carboxamide.cndot.1/2 hydrate] | PCA inhibition (%) [1]: 80.7% |
| 95.4 | O=C(NCCCCN1CCN(C(c2ccccc2)c2ccccc2)CC1)c1cnc2cccc(O)c2c1O [Example 4, N-[4-(4-diphenylmethyl-1-piperazinyl)butyl]-4,5-dihydroxyquinoline-3-carboxamide] |  |
| 80.3 | COc1c(C(=O)NCCCCN2CCN(C(c3ccccc3)c3ccccc3)CC2)cnc2ccccc12 [Example 5, N-[4-(4-diphenylmethyl-1-piperazinyl)butyl]-4-methoxyquinoline-3-carboxamide.cndot.1/4 hydrate] |  |
| 92.1 | N#Cc1cccc2ncc(C(=O)NCCCCN3CCN(C(c4ccccc4)c4ccccc4)CC3)c(O)c12 [Example 7 (5cyano compound), N-[4-(4-diphenylmethyl-1-piperazinyl)butyl]-5-cyano-4-hydroxyquinoline-3-carboxamide] |  |
| 84.7 | N#Cc1ccc2c(O)c(C(=O)NCCCCN3CCN(C(c4ccccc4)c4ccccc4)CC3)cnc2c1 [Example 7 (7cyano compound), N-[4-(4-diphenylmethyl-1-piperazinyl)butyl]-7-cyano-4-hydroxyquinoline-3-carboxamide] |  |
| 93.3 | COc1cccc2c(O)c(C(=O)NCCCCN3CCC(=C(c4ccccc4)c4ccccc4)CC3)cnc12 [Example 8, N-[4-(4-diphenylmethylene-1piperidyl)butyl]-4-hydroxy-8-methoxyquinoline-3-carboxamide.cndot.fumarate] |  |
| 88.3 | Cc1ccc2c(S)c(C(=O)NCCCCN3CCN(C(c4ccccc4)c4ccccc4)CC3)cnc2n1 [Example 9, N-[4-(4-diphenylmethyl-1-piperazinyl)butyl]-4-mercapto-7-methyl-1,8-naphthyridine-3-carboxamide.cndot.fumarate.cndot.1/2 hydratet] |  |
|  | Cc1ccc(C(=O)NCCCCN2CCN(C(c3ccccc3)c3ccccc3)CC2)c(O)n1 [Example 10, N-[4-(4-diphenylmethyl-1-piperazinyl)butyl]-2-hydroxy-6-methylpyridine-3-carboxamide] | PCA inhibition (%) [1]: 84.8% |
| 83.7 | O=C(NCCCCN1CCN(C(c2ccccc2)c2ccccc2)CC1)c1cnc2ccccc2c1O [Example 12] |  |
| 93.7 | Cc1ccc2ncc(C(=O)NCCCCN3CCN(C(c4ccccc4)c4ccccc4)CC3)c(O)c2c1 [Example 14] |  |
| 93 | Cc1ccc2c(O)c(C(=O)NCCCCN3CCN(C(c4ccccc4)c4ccccc4)CC3)cnc2c1 [Example 15] |  |
| 90.6 | Cc1cccc2c(O)c(C(=O)NCCCCN3CCN(C(c4ccccc4)c4ccccc4)CC3)cnc12 [Example 16] |  |
| 95.3 | CC(C)c1ccc2ncc(C(=O)NCCCCN3CCN(C(c4ccccc4)c4ccccc4)CC3)c(O)c2c1 [Example 17] |  |
| 93.2 | COc1ccc2ncc(C(=O)NCCCCN3CCN(C(c4ccccc4)c4ccccc4)CC3)c(O)c2c1 [Example 18] |  |
| 92.8 | COc1ccc2c(O)c(C(=O)NCCCCN3CCN(C(c4ccccc4)c4ccccc4)CC3)cnc2c1 [Example 19] |  |
| 94.8 | CCCCOc1cccc2c(O)c(C(=O)NCCCCN3CCN(C(c4ccccc4)c4ccccc4)CC3)cnc12 [Example 20] |  |
| 67.9 | N#Cc1ccc2ncc(C(=O)NCCCCN3CCN(C(c4ccccc4)c4ccccc4)CC3)c(O)c2c1 [Example 21] |  |
|  | CN1CCC(=C2c3ccccc3CC(=O)c3sccc32)CC1 [Ketotifen fumarate, reference compound] | 5-lipoxygenase inhibitory activity (in words) (5-lipoxygenase; ketotifen fumarate at 10^-4 M): did not show any significant inhibitory activity; PCA inhibition (%) [1]: 54.7% |

| Structure (SMILES) | inhibition at 10 µM (5-lipoxygenase) [%] | also measured |
| --- | --- | --- |
| Cc1ccc2c(O)c(C(=O)NCCCCN3CCC(=C(c4ccccc4)c4ccccc4)CC3)cnc2n1 [Example 1, N-[4-(4-diphenylmethylene-1-piperidyl)butyl]-4-hydroxy-7-methyl-1,8-naphthyridine-3-carboxamide.cndot.1/4 hydrate] | 96.8 | PCA inhibition (%) [1]: 88.3%; death of the animals (ddY mice): no death was observed |
| COc1cccc2c(O)c(C(=O)NCCCCN3CCN(C(c4ccccc4)c4ccccc4)CC3)cnc12 [Example 3, N-[4-(4-diphenylmethyl-1-piperazinyl)butyl]-4-hydroxy-8-methoxyquinoline-3-carboxamide] | 91.3 | PCA inhibition (%) [1]: 56.0%; death of the animals (ddY mice): no death was observed |
| CC(C)c1ccc(C(=O)NCCCCN2CCN(C(c3ccccc3)c3ccccc3)CC2)c(O)n1 [Example 6, N-[4-(4-diphenylmethyl-1-piperazinyl)butyl]-2-hydroxy-6-isopropylpyridine-3carboxamide] | 75.1 | PCA inhibition (%) [1]: 93.0%; death of the animals (ddY mice): no death was observed |
